We go through four molecules from patent publication US20070269832A1, “Novel affinity labels” (priority 2001, published 2007).

Peptide text beside a SMILES is read from it. * marks the point of attachment. Cbz = O=C(OCc1ccccc1)*; CH2F = FC*

Common to all, as to format: cell-based, Human
Test [1] concerns HL-60 cells. Put plainly: Labeling of untreated and CPT-treated HL-60 cells with FLISP (FFCK, FLCK) or FLICA reagents, fluorescence measured by LSC. The note with it: for binding of the ligand by cells treated with CPT vs untreated cells (in words): HL-60, 3 h CPT, combined with PI. Here is the method: Preparation of Reagents: Fluorescent Inhibitors of Serine Proteases (FLISP) reagents, 5(6)-Carboxyfluoresceinyl-L-phenylalanylchloromethyl ketone (FFCK) and 5(6)-carboxyfluoresceinyl-L-leucylchloromethyl ketone (FLCK) were dissolved initially in dimethyl sulfoxide (DMSO; Sigma) to yield a 10 mM concentration. Aliquots were made from this stock solution and stored frozen at −20° C. protected from light. This reagent stock was then diluted directly into the cell culture media to give a 1× working reagent concentration of 10 μM. Dilution of the reagent into aqueous (cell culture) media is done just prior to cell exposure to preserve the labile chloromethyl ketone reactivity of FLISP reagent.
Fluorescent inhibitors of caspases (FLICA) reagents, namely the fluorescein labeled VAD-FMK (FAM-VAD-FMK) and sulforhodamine labeled VAD-FMK (SR-VAD-FMK) (Immunochemistry Technologies; Bloomington, Minn.) were both designed to detect the presence of active caspases within apoptotic cells. These inhibitors were dissolved in DMSO to obtain a 150× concentrated stock solution. Aliquots of these solutions were stored at −20 °C in the dark. Prior to use, a 30× working solution of either FAM-VAD-FMK or SR-VAD-FMK was prepared by diluting the stock solution 1:5 in phosphate buffered saline (PBS) and mixing until the solution become clear. The 30× working solution was diluted 1:30 cell culture media to give a final 1× working reagent concentration of 10 μM.
(§1) Cells: Human promyelocytic leukemic HL-60 cells were obtained from American Type Culture Collection (ATCC; Rockville, Md.). […]
Cell staining and fluorescence measurement by LSC: The HL-60 cells from the untreated or CPT treated cultures were centrifuged (200 g, 5 min) and resuspended in PBS at approximately 10^4 cells per 5 ml volume. […]

The test system of test [2] is HL-60 cells. Nature of the test: Dual labeling of CPT-treated HL-60 cells with SR-VAD-FMK and FFCK or FLCK (fluorescence microscopy / LSC). The note with it: CPT-treated HL-60, dual labeling. How it is done:
Cell staining and fluorescence measurement by LSC: The HL-60 cells from the untreated or CPT treated cultures were centrifuged (200 g, 5 min) and resuspended in PBS at approximately 10^4 cells per 5 ml volume. Cells were then attached electrostatically to microscope slides as described before (Bedner et al., Exp Cell Res., 2000, 259:308-313; Smolewski et al., Cytometry, 2001, 44:73-82). Briefly, the attachment was achieved by the incubation (15 min) of cells suspended in serum-free PBS in shallow (<1 mm depth; 1.5×1.5 cm) wells on horizontally placed microscope slides that were rinsed in 100% ethanol and air dried prior to use, at 100% humidity. The electrostatically attached cells remain viable, exclude such dyes as trypan blue and propidium iodide (PI), and have unchanged morphology for several hours (Bedner et al., Exp Cell Res., 2000, 259:308-313). After the cells became attached, PBS was removed from the wells and was replaced by 150 μL of the culture medium containing 10% FCS. FLISP staining solutions were prepared by diluting 5 μL of the 10 mM FFCK or FLCK stock solution into 5 mL of culture medium yielding a final FLISP concentration 10 μM. The medium from above the cells on the slide was then replaced with 150 μL of this staining solution. A polyethylene foil (2.5×2.5 cm) was positioned over the staining solution to prevent drying. The slides were subsequently incubated for 1 h at 37° C. in a closed box with wet tissue to additionally prevent drying. […] The slides were placed on the motorized stage of a laser scanning microscope (LSC; Kamentsky, L. A., Methods Cell Biol, 2001, 63:51-87; Darzynkiewicz et al., Exp Cell Res, 1999, 249:1-12) for fluorescence measurement. Cell fluorescence was then measured using a 488 nm excitation laser line and recording integral and maximal pixel intensities of green FFCK or FLCK. FLICA staining was measured under the same conditions as FLISP staining. Fluorescence can also be measured by flow cytometer and fluorescence microscopy. […]

In test [3] the test system is HL-60 cells. Nature of the test: Pretreatment of HL-60 cells with unlabeled protease inhibitors during CPT induction of apoptosis, then binding of FAM-VAD-FMK, FFCK or FLCK measured by LSC. The note with it: HL-60, CPT 3 h in presence of the unlabeled inhibitor; mean (SE) of three experiments. How it is done:
Unlabeled (cold) N-tosyl-phenylalanylchloromethyl ketone (TPCK) and N-tosyl-lysylchloromethyl keytone (TLCK) were obtained from Sigma Chemical Co.; concentrated solutions at 10 mM were freshly prepared in DMSO. Further dilutions were made in tissue culture media.
The non-fluorescent poly-caspase inhibitor Z-VAD-FMK was obtained from Enzyme Systems Products. A 20 mM stock solution of Z-VAD-FMK was made in DMSO (Sigma) and the inhibitor was then diluted in culture media to obtain the final 50 μM concentration in the cultures.
as §1
Cell staining and fluorescence measurement by LSC: The HL-60 cells from the untreated or CPT treated cultures were centrifuged (200 g, 5 min) and resuspended in PBS at approximately 10^4 cells per 5 ml volume. […] The slides were placed on the motorized stage of a laser scanning microscope (LSC; Kamentsky, L. A., Methods Cell Biol, 2001, 63:51-87; Darzynkiewicz et al., Exp Cell Res, 1999, 249:1-12) for fluorescence measurement. Cell fluorescence was then measured using a 488 nm excitation laser line and recording integral and maximal pixel intensities of green FFCK or FLCK. FLICA staining was measured under the same conditions as FLISP staining. Fluorescence can also be measured by flow cytometer and fluorescence microscopy. […]

Consider “5(6)-carboxyfluoresceinyl-L-leucylchloromethyl ketone [FLCK]”, for which the “binding of the ligand by cells treated with CPT vs untreated cells (in words)” value with HL-60 cells [1] is “induced binding”. The “fluorescence intensity of FLCK labeled cells, greater compared to FFCK labeled cells” value in the test with HL-60 cells [1] (identical settings of the photomultiplier sensitivity) is on record as “approximately 60%”. For the same molecule, the “fluorescence of labeled cells (intensity and distribution, in words)” value (“fluorescence of labeled cells” for short) with HL-60 cells [2] was “faint and more uniformly distributed”.

“5(6)-Carboxyfluoresceinyl-L-phenylalanylchloromethyl ketone [FFCK]”: the “binding of the ligand by cells treated with CPT vs untreated cells (in words)” value in the test with HL-60 cells [1] is “induced binding”. The “fluorescence of labeled cells” value with HL-60 cells [2] is recorded as “strong”.

Consider “Sulforhodaminyl-L-valylalanylaspartylflyoromethyl ketone [SR-VAD-FMK, reference compound]”, for which the “fluorescence of labeled cells” value in the test on HL-60 cells [2] is recorded as “uniformly dispersed”.

For `COC(=O)C[C@H](NC(=O)[C@H](C)NC(=O)[C@@H](NC(=O)OCc1ccccc1)C(C)C)C(=O)CF` [Z-VAD-FMK] (Cbz-Val-Ala-Asp(OMe)-CH2F), in the test on HL-60 cells [3], the “percent decrease in frequency of FAM-VAD-FMK labeled cells (caspase activation) vs CPT without unlabeled inhibitor” value amounted to 95.0%.
